Each structure is given as a SMILES string. Bounds are passed on as bounds.

human neprilysin (EC 3.4.24.11; NEP), sequence (P08473 52-750): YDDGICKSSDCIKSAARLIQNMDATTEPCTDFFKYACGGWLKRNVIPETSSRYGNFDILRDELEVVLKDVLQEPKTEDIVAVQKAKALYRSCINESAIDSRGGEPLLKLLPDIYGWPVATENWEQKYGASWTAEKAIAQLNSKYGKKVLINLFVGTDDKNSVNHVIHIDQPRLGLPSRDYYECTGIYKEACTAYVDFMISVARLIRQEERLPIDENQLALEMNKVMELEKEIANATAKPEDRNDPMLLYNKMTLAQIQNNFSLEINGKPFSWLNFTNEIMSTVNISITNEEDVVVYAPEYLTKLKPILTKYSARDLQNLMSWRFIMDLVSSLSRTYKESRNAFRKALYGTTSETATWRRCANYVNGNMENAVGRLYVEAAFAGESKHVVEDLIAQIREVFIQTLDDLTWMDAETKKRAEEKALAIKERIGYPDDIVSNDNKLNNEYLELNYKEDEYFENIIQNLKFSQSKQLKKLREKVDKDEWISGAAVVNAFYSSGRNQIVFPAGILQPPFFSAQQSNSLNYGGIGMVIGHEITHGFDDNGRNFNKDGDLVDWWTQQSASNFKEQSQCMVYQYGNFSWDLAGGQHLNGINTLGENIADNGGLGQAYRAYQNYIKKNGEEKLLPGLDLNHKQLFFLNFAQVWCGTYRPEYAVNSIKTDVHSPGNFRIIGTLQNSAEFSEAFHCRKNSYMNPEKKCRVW

This assay addresses human neprilysin (EC 3.4.24.11; NEP) (Homo sapiens (Human), UniProt P08473). The assay can be described thus: In vitro enzyme inhibition assay at human NEP (fluorogenic peptide substrate). The note with it: pKi values at human NEP, recombinant human NEP. Type of assay: biochemical. The method, then:
In Vitro Assays for the Quantitation of Inhibitor Potencies at Human and Rat NEP, and Human ACE
The inhibitory activities of compounds at human and rat neprilysin (EC 3.4.24.11; NEP) and human angiotensin converting enzyme (ACE) were determined using in vitro assays as described below.
Recombinant human NEP and recombinant human ACE were obtained commercially (R&D Systems, Minneapolis, Minn., catalog numbers 1182-ZN and 929-ZN, respectively). The fluorogenic peptide substrate Mca-D-Arg-Arg-Leu-Dap-(Dnp)-OH (Medeiros et al. (1997) Braz. J. Med. Biol. Res. 30:1157-62; Anaspec, San Jose, Calif.) and Abz-Phe-Arg-Lys(Dnp)-Pro-OH (Araujo et al. (2000) Biochemistry 39:8519-8525; Bachem, Torrance, Calif.) were used in the NEP and ACE assays respectively.
The assays were performed in 384-well white opaque plates at 37° C. using the fluorogenic peptide substrates at a concentration of 10 μM in Assay Buffer (NEP: 50 mM HEPES, pH 7.5, 100 mM NaCl, 0.01% polyethylene glycol sorbitan monolaurate (Tween-20), 10 μM ZnSO4; ACE: 50 mM HEPES, pH 7.5, 100 mM NaCl, 0.01% Tween-20, 1 μM ZnSO4).
Test compounds were assayed over the range of concentrations from 10 μM to pM. Test compounds were added to the enzymes and incubated for 30 minute at 37° C. prior to initiating the reaction by the addition of substrate. Reactions were terminated after 20 minutes of incubation at 37° C. by the addition of glacial acetic acid to a final concentration of 3.6% (v/v).
Plates were read on a fluorometer with excitation and emission wavelengths set to 320 nm and 405 nm, respectively. Inhibition constants were obtained by nonlinear regression of the data using the equation (GraphPad Software, Inc., San Diego, Calif.): v=v0/[1+(I/K′)] where v is the reaction rate, v0 is the uninhibited reaction rate, I is the inhibitor concentration and K′ is the apparent inhibition constant.
Compounds of the invention were tested in this assay and found to have pKi values at human NEP as follows.
`O=C(N[C@H](Cc1ccc(-c2ccccc2)cc1)C[C@@H](O)C(=O)O)c1noc(=O)[nH]1` [Example 12-27, (2R,4R)-5-Biphenyl-4-yl-2-hydroxy-4-[(5-oxo-4,5-dihydro-[1,2,4]oxadiazole-3-carbonyl)-amino]-pentanoic acid]: the pKi (in general, the negative decadic logarithm of the Ki, by convention in mol/L) is listed as at least 9.0.
`O=C(O)c1cnc(C(=O)N[C@H](Cc2ccc(-c3ccccc3)cc2)CC(O)C(=O)O)cn1` (stereo partly drawn) [Example 13-1, 5-((R)-1-Biphenyl-4-ylmethyl-3-carboxy-3-hydroxypropylcarbamoyl)-pyrazine-2-carboxylic acid]: the Ki (as a rule, the dissociation constant of the complex between target and ligand, obtained from inhibition or displacement) is 1.26 to 10 nM.
With `O=C(O)c1ccc(C(=O)N[C@H](Cc2ccc(-c3ccccc3)cc2)CC(O)C(=O)O)nn1` (stereo partly drawn) [Example 13-3, 6-((R)-1-Biphenyl-4-ylmethyl-3-carboxy-3-hydroxypropylcarbamoyl)-pyridazine-3-carboxylic acid], the Ki was 12.6 to 100 nM.
In the case of `O=C(N[C@H](Cc1ccc(-c2ccccc2)cc1)CC(O)C(=O)O)c1ccc(O)nn1` (stereo partly drawn) [Example 13-5, (R)-5-Biphenyl-4-yl-2-hydroxy-4-[(6-hydroxypyridazine-3-carbonyl)-amino]-pentanoic acid], the Ki is 12.6 to 100 nM.
Still for that read-out and setting: to `O=C1CCC(C(=O)N[C@H](Cc2ccc(-c3ccccc3)cc2)CC(O)C(=O)O)=NN1` (stereo partly drawn) [Example 13-6, (R)-5-Biphenyl-4-yl-2-hydroxy-4-[(6-oxo-1,4,5,6-tetrahydro-pyridazine-3-carbonyl)-amino]-pentanoic acid] belongs 12.6 to 100 nM; to `O=C(O)c1ccc(C(=O)N[C@H](Cc2ccc(-c3ccccc3)cc2)CC(O)C(=O)O)nc1` (stereo partly drawn) [Example 13-7, 6-((R)-1-Biphenyl-4-ylmethyl-3-carboxy-3-hydroxypropylcarbamoyl)nicotinic acid], 12.6 to 100 nM; to `O=C(N[C@H](Cc1ccc(-c2ccccc2)cc1)CC(O)C(=O)O)c1ccc(C(=O)O)nc1` (stereo partly drawn) [Example 13-8, 5-((R)-1-Biphenyl-4-ylmethyl-3-carboxy-3-hydroxypropylcarbamoyl)-pyridine-2-carboxylic acid], 12.6 to 100 nM.
The same measure, in the same setting: to `O=C(N[C@H](Cc1ccc(-c2ccccc2)cc1)CC(O)C(=O)O)c1cc[nH]n1` (stereo partly drawn) [Example 15-1, (R)-5-Biphenyl-4-yl-2-hydroxy-4-[(1H-pyrazole-3-carbonyl)amino]pentanoic acid] belongs 12.6 to 100 nM; to `O=C(O)Cc1cc(C(=O)N[C@H](Cc2ccc(-c3ccccc3)cc2)C[C@@H](O)C(=O)O)n[nH]1` [Example 15-2, (2R,4R)-5-Biphenyl-4-yl-4-[(5-carboxymethyl-1H-pyrazole-3-carbonyl)amino]-2-hydroxy-pentanoic acid], 1.26 to 10 nM.
Still for that read-out and setting: under `O=C(N[C@H](Cc1ccc(-c2ccccc2)cc1)C[C@@H](O)C(=O)O)c1cc(CO)[nH]n1` [Example 15-3, (2R,4R)-5-Biphenyl-4-yl-2-hydroxy-4-[(5-hydroxymethyl-1H-pyrazole-3-carbonyl)-amino]-pentanoic acid] stands 1.26 to 10 nM; under `COCc1cc(C(=O)N[C@H](Cc2ccc(-c3ccccc3)cc2)C[C@@H](O)C(=O)O)n[nH]1` [Example 15-4, (2R,4R)-5-Biphenyl-4-yl-2-hydroxy-4-[(5-methoxymethyl-1H-pyrazole-3-carbonyl)-amino]-pentanoic acid], 1.26 to 10 nM.
Consider `Cn1nc(C(=O)N[C@H](Cc2ccc(-c3ccccc3)cc2)C[C@@H](O)C(=O)O)cc1C(=O)O` [Example 15-5, 5-((1R,3R)-1-Biphenyl-4-ylmethyl-3-carboxy-3-hydroxypropylcarbamoyl)-2-methyl-2H-pyrazole-3-carboxylic acid], for which the pKi is at least 9.0.
On to `O=C(N[C@H](Cc1ccc(-c2ccccc2)cc1)CC(O)C(=O)O)c1cc(C(=O)O)n(Cc2ccc(Cl)c(SC(F)(F)F)c2)n1` (stereo partly drawn) [Example 15-6, 5-((R)-1-Biphenyl-4-ylmethyl-3-carboxy-3-hydroxypropylcarbamoyl)-2-(4-chloro-3-trifluoromethylsulfanyl-benzyl)-2H-pyrazole-3-carboxylic acid], for which the Ki was 12.6 to 100 nM.
Turning to `O=C(N[C@H](Cc1ccc(-c2ccccc2)cc1)CC(O)C(=O)O)c1cc(C(=O)O)n(Cc2cccc(Cl)c2)n1` (stereo partly drawn) [Example 15-7, 5-((R)-1-Biphenyl-4-ylmethyl-3-carboxy-3-hydroxypropylcarbamoyl)-2-(3-chlorobenzyl)-2H-pyrazole-3-carboxylic acid], the Ki is 1.26 to 10 nM.
In the case of `O=C(N[C@H](Cc1ccc(-c2ccccc2)cc1)CC(O)C(=O)O)c1cc(C(=O)O)n(Cc2c(F)cc(Cl)cc2F)n1` (stereo partly drawn) [Example 15-8, 5-((R)-1-Biphenyl-4-ylmethyl-3-carboxy-3-hydroxy-propylcarbamoyl)-2-(4-chloro-2,6-difluorobenzyl)-2H-pyrazole-3-carboxylic acid], the Ki was 1.26 to 10 nM.
The same measure, in the same setting: to `O=C(N[C@H](Cc1ccc(-c2ccccc2)cc1)CC(O)C(=O)O)c1cc(C(=O)O)n(Cc2ccccc2Cl)n1` (stereo partly drawn) [Example 15-9, 5-((R)-1-Biphenyl-4-ylmethyl-3-carboxy-3-hydroxy-propylcarbamoyl)-2-(2-chlorobenzyl)-2H-pyrazole-3-carboxylic acid] belongs 1.26 to 10 nM.
Still for that read-out and setting: to `O=C(N[C@H](Cc1ccc(-c2ccccc2)cc1)CC(O)C(=O)O)c1cc(C(=O)O)n(Cc2cc(F)ccc2Cl)n1` (stereo partly drawn) [Example 15-10, 5-((R)-1-Biphenyl-4-ylmethyl-3-carboxy-3-hydroxy-propylcarbamoyl)-2-(2-chloro-5-fluorobenzyl)-2H-pyrazole-3-carboxylic acid] belongs 1.26 to 10 nM; to `O=C(N[C@H](Cc1ccc(-c2ccccc2)cc1)CC(O)C(=O)O)c1cc(C(=O)O)n(Cc2cc(F)cc(Cl)c2)n1` (stereo partly drawn) [Example 15-11, 5-((R)-1-Biphenyl-4-ylmethyl-3-carboxy-3-hydroxy-propylcarbamoyl)-2-(3-chloro-5-fluorobenzyl)-2H-pyrazole-3-carboxylic acid], 1.26 to 10 nM; to `O=C(N[C@H](Cc1ccc(-c2ccccc2)cc1)CC(O)C(=O)O)c1cc(C(=O)O)n(Cc2ccc(Cl)c(OC(F)(F)F)c2)n1` (stereo partly drawn) [Example 15-12, 5-((R)-1-Biphenyl-4-ylmethyl-3-carboxy-3-hydroxy-propylcarbamoyl)-2-(4-chloro-3-trifluoromethoxybenzyl)-2H-pyrazole-3-carboxylic acid], 12.6 to 100 nM.
For `O=C(N[C@H](Cc1ccc(-c2ccccc2)cc1)CC(O)C(=O)O)c1cc(C(=O)O)n(Cc2ccc(Cl)cc2F)n1` (stereo partly drawn) [Example 15-13, 5-((R)-1-Biphenyl-4-ylmethyl-3-carboxy-3-hydroxy-propylcarbamoyl)-2-(4-chloro-2-fluorobenzyl)-2H-pyrazole-3-carboxylic acid], the Ki is 1.26 to 10 nM.
For the compound `O=C(N[C@H](Cc1ccc(-c2ccccc2)cc1)CC(O)C(=O)O)c1cc(C(=O)O)n(Cc2ccc(F)c(Cl)c2)n1` (stereo partly drawn) [Example 15-14, 5-((R)-1-Biphenyl-4-ylmethyl-3-carboxy-3-hydroxy-propylcarbamoyl)-2-(3-chloro-4-fluorobenzyl)-2H-pyrazole-3-carboxylic acid], the Ki was 1.26 to 10 nM.
On to `O=C(N[C@H](Cc1ccc(-c2ccccc2)cc1)CC(O)C(=O)O)c1cc(C(=O)O)n(Cc2ccc(Cl)cc2)n1` (stereo partly drawn) [Example 15-15, 5-((R)-1-Biphenyl-4-ylmethyl-3-carboxy-3-hydroxy-propylcarbamoyl)-2-(4-chlorobenzyl)-2H-pyrazole-3-carboxylic acid], for which the Ki is 1.26 to 10 nM.
On the same count and under the same terms, under `O=C(N[C@H](Cc1ccc(-c2ccccc2)cc1)CC(O)C(=O)O)c1cc(C(=O)O)n(Cc2c(F)ccc(Cl)c2F)n1` (stereo partly drawn) [Example 15-16, 5-((R)-1-Biphenyl-4-ylmethyl-3-carboxy-3-hydroxy-propylcarbamoyl)-2-(3-chloro-2,6-difluorobenzyl)-2H-pyrazole-3-carboxylic acid] stands 1.26 to 10 nM; under `COc1cccc(Cn2nc(C(=O)N[C@H](Cc3ccc(-c4ccccc4)cc3)CC(O)C(=O)O)cc2C(=O)O)c1` (stereo partly drawn) [Example 15-17, 5-((R)-1-Biphenyl-4-ylmethyl-3-carboxy-3-hydroxy-propylcarbamoyl)-2-(3-methoxy-benzyl)-2H-pyrazole-3-carboxylic acid], 12.6 to 100 nM; under `Cc1cc(C(=O)N[C@H](Cc2ccc(-c3ccccc3)cc2)CC(O)C(=O)O)n[nH]1` (stereo partly drawn) [Example 15-19, (R)-5-Biphenyl-4-yl-2-hydroxy-4-[(5-methyl-1H-pyrazole-3-carbonyl)amino]pentanoic acid], 12.6 to 100 nM.
Turning to `O=C(N[C@H](Cc1ccc(-c2ccccc2)cc1)C[C@@H](O)C(=O)O)c1cc(-c2ccncc2)[nH]n1` [Example 15-20, (2R,4R)-5-Biphenyl-4-yl-2-hydroxy-4-[(5-pyridin-4-yl-1H-pyrazole-3-carbonyl)-amino]-pentanoic acid], the Ki is 1.26 to 10 nM.

The values above are taken from patent US10759813B2, “Neprilysin inhibitors” (THERAVANCE BIOPHARMA R&D IP, LLC, priority 2010, dated 2020).
